Tested on: normotensive Dutch Belted rabbits
Assay: Intraocular pressure (IOP) after single dose in normotensive rabbits
Assay type: in vivo, rabbit
Description: Water (pH 4.5, made isotonic with sodium chloride), was selected as vehicle for the IOP-studies.
Five concentrations (0.01, 0.05, 0.2, 0.5 and 1.0% w/v) of CHF 1035 were studied. Brimonidine (0.2% w/v) was used as a positive, and vehicle (water pH 4.5) as a negative control.
The experimental animals used were normotensive Dutch Belted rabbits of either gender (n=6). A single drop (25 μl) of the test solution was instilled unilaterally into the left eye (treated eye). IOP of the rabbits (treated and untreated eyes) was measured at 1 and 0 h before, and at 0.5, 1, 2, 3, 4, 5, 6 and 7 h after topical eyedrop administration. IOP at the time of eyedrop administration (0 h) was used as a baseline value. IOP was measured using a BioRad Pneumatonometer. More detailed description of the IOP measurement procedure can be found in Pharm. Res. 14, 1738-1743, 1997 and Curr. Eye Res. 14, 791-797, 1995. All the studies were set up using a randomized crossover design. At least 72 h of wash-out time was allowed for each rabbit between dosings. The irritation caused by an instilled eyedrop were evaluated by recording the extent of eyelid closure after topical eyedrop administration.

[1] = topical single dose, normotensive rabbits

With `CNC1CCc2c(ccc(OC(=O)C(C)C)c2OC(=O)C(C)C)C1` (racemic) [CHF 1035, (±)-(R,S)-5,6-diisobutyryloxy-2-methylaminotetralin] the “duration of action compared with brimonidine” value (normotensive rabbits) was “longer duration of action than brimonidine”, the “effectiveness in decreasing IOP compared with brimonidine” value (normotensive rabbits) was “more effective in decreasing IOP than brimonidine” and the onset of action (normotensive rabbits) was “late onset of action”. The “IOP decrease in the untreated eye” value [1] was “no significant IOP decrease is observed in the untreated eye”, the “effect on IOP in the treated eye” value [1] was “decreases significantly the IOP in the treated eye” and the “IOP changes (mean ± SEM) in the treated eye” value (0.01% w/v, 0 min) was 0.0 ± 0.0 mmHg. The “IOP changes (mean ± SEM) in the treated eye” value (0.01% w/v, 30 min) was −1.9 ± 0.9 mmHg, the “IOP changes (mean ± SEM) in the treated eye” value (0.01% w/v, 60 min) was −4.2 ± 1.1 mmHg and the “IOP changes (mean ± SEM) in the treated eye” value (0.01% w/v, 120 min) was −5.3 ± 0.7 mmHg. The “IOP changes (mean ± SEM) in the treated eye” value (0.01% w/v, 180 min) was −5.0 ± 1.0 mmHg, the “IOP changes (mean ± SEM) in the treated eye” value (0.01% w/v, 240 min) was −4.5 ± 1.3 mmHg and the “IOP changes (mean ± SEM) in the treated eye” value (0.01% w/v, 300 min) was −4.3 ± 0.9 mmHg. For the same compound, the “IOP changes (mean ± SEM) in the treated eye” value (0.01% w/v, 360 min) was −2.6 ± 0.6 mmHg, the “IOP changes (mean ± SEM) in the treated eye” value (0.01% w/v, 420 min) was −1.3 ± 0.8 mmHg and the “IOP changes (mean ± SEM) in the treated eye” value (0.05% w/v, 0 min) was 0.0 ± 0.0 mmHg. For the same compound, the “IOP changes (mean ± SEM) in the treated eye” value (0.05% w/v, 30 min) was −0.4 ± 0.5 mmHg, the “IOP changes (mean ± SEM) in the treated eye” value (0.05% w/v, 60 min) was −3.3 ± 0.4 mmHg and the “IOP changes (mean ± SEM) in the treated eye” value (0.05% w/v, 120 min) was −6.5 ± 0.9 mmHg. For the same compound, the “IOP changes (mean ± SEM) in the treated eye” value (0.05% w/v, 180 min) was −6.3 ± 0.9 mmHg, the “IOP changes (mean ± SEM) in the treated eye” value (0.05% w/v, 240 min) was −6.7 ± 0.8 mmHg and the “IOP changes (mean ± SEM) in the treated eye” value (0.05% w/v, 300 min) was −6.4 ± 0.8 mmHg. The “IOP changes (mean ± SEM) in the treated eye” value (0.05% w/v, 360 min) was −5.5 ± 0.7 mmHg, the “IOP changes (mean ± SEM) in the treated eye” value (0.05% w/v, 420 min) was −4.3 ± 0.5 mmHg and the “IOP changes (mean ± SEM) in the treated eye” value (0.2% w/v, 0 min) was 0.0 ± 0.0 mmHg. For the same compound, the “IOP changes (mean ± SEM) in the treated eye” value (0.2% w/v, 30 min) was 0.8 ± 0.9 mmHg, the “IOP changes (mean ± SEM) in the treated eye” value (0.2% w/v, 60 min) was −0.4 ± 1.1 mmHg and the “IOP changes (mean ± SEM) in the treated eye” value (0.2% w/v, 120 min) was −2.1 ± 0.7 mmHg. The “IOP changes (mean ± SEM) in the treated eye” value (0.2% w/v, 180 min) was −6.0 ± 0.9 mmHg, the “IOP changes (mean ± SEM) in the treated eye” value (0.2% w/v, 240 min) was −6.3 ± 1.0 mmHg and the “IOP changes (mean ± SEM) in the treated eye” value (0.2% w/v, 300 min) was −7.6 ± 1.5 mmHg. For the same compound, the “IOP changes (mean ± SEM) in the treated eye” value (0.2% w/v, 360 min) was −6.9 ± 1.0 mmHg, the “IOP changes (mean ± SEM) in the treated eye” value (0.2% w/v, 420 min) was −5.7 ± 1.1 mmHg and the “IOP changes (mean ± SEM) in the treated eye” value (0.5% w/v, 0 min) was 0.0 ± 0.0 mmHg. For the same compound, the “IOP changes (mean ± SEM) in the treated eye” value (0.5% w/v, 30 min) was 1.8 ± 0.6 mmHg, the “IOP changes (mean ± SEM) in the treated eye” value (0.5% w/v, 60 min) was 1.2 ± 0.7 mmHg and the “IOP changes (mean ± SEM) in the treated eye” value (0.5% w/v, 120 min) was 0.1 ± 0.7 mmHg. The “IOP changes (mean ± SEM) in the treated eye” value (0.5% w/v, 180 min) was −5.0 ± 1.2 mmHg, the “IOP changes (mean ± SEM) in the treated eye” value (0.5% w/v, 240 min) was −5.6 ± 0.6 mmHg and the “IOP changes (mean ± SEM) in the treated eye” value (0.5% w/v, 300 min) was −7.9 ± 0.9 mmHg. For the same compound, the “IOP changes (mean ± SEM) in the treated eye” value (0.5% w/v, 360 min) was −6.9 ± 0.8 mmHg, the “IOP changes (mean ± SEM) in the treated eye” value (0.5% w/v, 420 min) was −7.0 ± 0.8 mmHg and the “IOP changes (mean ± SEM) in the treated eye” value (1.0% w/v, 0 min) was 0.0 ± 0.0 mmHg. For the same compound, the “IOP changes (mean ± SEM) in the treated eye” value (1.0% w/v, 30 min) was 1.3 ± 0.9 mmHg, the “IOP changes (mean ± SEM) in the treated eye” value (1.0% w/v, 60 min) was 0.4 ± 1.0 mmHg and the “IOP changes (mean ± SEM) in the treated eye” value (1.0% w/v, 120 min) was 0.1 ± 0.9 mmHg. The “IOP changes (mean ± SEM) in the treated eye” value (1.0% w/v, 180 min) was −3.2 ± 1.8 mmHg, the “IOP changes (mean ± SEM) in the treated eye” value (1.0% w/v, 240 min) was −4.9 ± 1.5 mmHg and the “IOP changes (mean ± SEM) in the treated eye” value (1.0% w/v, 300 min) was −5.8 ± 1.6 mmHg. For the same compound, the “IOP changes (mean ± SEM) in the treated eye” value (1.0% w/v, 360 min) was −6.6 ± 1.6 mmHg, the “IOP changes (mean ± SEM) in the treated eye” value (1.0% w/v, 420 min) was −5.3 ± 1.5 mmHg and the “IOP changes (mean ± SEM) in the untreated eye” value (0.01% w/v, 0 min) was 0.0 ± 0.0 mmHg. The “IOP changes (mean ± SEM) in the untreated eye” value (0.01% w/v, 30 min) was −1.0 ± 1.1 mmHg, the “IOP changes (mean ± SEM) in the untreated eye” value (0.01% w/v, 60 min) was −1.9 ± 1.2 mmHg and the “IOP changes (mean ± SEM) in the untreated eye” value (0.01% w/v, 120 min) was −1.6 ± 1.0 mmHg. The “IOP changes (mean ± SEM) in the untreated eye” value (0.01% w/v, 180 min) was −0.5 ± 0.7 mmHg, the “IOP changes (mean ± SEM) in the untreated eye” value (0.01% w/v, 240 min) was −1.4 ± 0.7 mmHg and the “IOP changes (mean ± SEM) in the untreated eye” value (0.01% w/v, 300 min) was −1.7 ± 0.4 mmHg. For the same compound, the “IOP changes (mean ± SEM) in the untreated eye” value (0.01% w/v, 360 min) was 0.0 ± 0.6 mmHg, the “IOP changes (mean ± SEM) in the untreated eye” value (0.01% w/v, 420 min) was 0.4 ± 0.7 mmHg and the “IOP changes (mean ± SEM) in the untreated eye” value (0.05% w/v, 0 min) was 0.0 ± 0.0 mmHg. The “IOP changes (mean ± SEM) in the untreated eye” value (0.05% w/v, 30 min) was 0.0 ± 0.6 mmHg, the “IOP changes (mean ± SEM) in the untreated eye” value (0.05% w/v, 60 min) was 0.1 ± 0.7 mmHg and the “IOP changes (mean ± SEM) in the untreated eye” value (0.05% w/v, 120 min) was −1.5 ± 0.8 mmHg. For the same compound, the “IOP changes (mean ± SEM) in the untreated eye” value (0.05% w/v, 180 min) was −0.4 ± 1.0 mmHg, the “IOP changes (mean ± SEM) in the untreated eye” value (0.05% w/v, 240 min) was −1.0 ± 0.4 mmHg and the “IOP changes (mean ± SEM) in the untreated eye” value (0.05% w/v, 300 min) was −1.9 ± 0.9 mmHg. The “IOP changes (mean ± SEM) in the untreated eye” value (0.05% w/v, 360 min) was −0.6 ± 1.2 mmHg, the “IOP changes (mean ± SEM) in the untreated eye” value (0.05% w/v, 420 min) was 0.3 ± 0.7 mmHg and the “IOP changes (mean ± SEM) in the untreated eye” value (0.2% w/v, 0 min) was 0.0 ± 0.0 mmHg. For the same compound, the “IOP changes (mean ± SEM) in the untreated eye” value (0.2% w/v, 30 min) was 1.0 ± 0.8 mmHg, the “IOP changes (mean ± SEM) in the untreated eye” value (0.2% w/v, 60 min) was 0.5 ± 1.2 mmHg and the “IOP changes (mean ± SEM) in the untreated eye” value (0.2% w/v, 120 min) was 0.0 ± 0.9 mmHg. For the same compound, the “IOP changes (mean ± SEM) in the untreated eye” value (0.2% w/v, 180 min) was −1.5 ± 1.2 mmHg, the “IOP changes (mean ± SEM) in the untreated eye” value (0.2% w/v, 240 min) was −1.6 ± 1.1 mmHg and the “IOP changes (mean ± SEM) in the untreated eye” value (0.2% w/v, 300 min) was −1.1 ± 1.1 mmHg. The “IOP changes (mean ± SEM) in the untreated eye” value (0.2% w/v, 360 min) was −0.7 ± 1.0 mmHg, the “IOP changes (mean ± SEM) in the untreated eye” value (0.2% w/v, 420 min) was 0.0 ± 0.8 mmHg and the “IOP changes (mean ± SEM) in the untreated eye” value (0.5% w/v, 0 min) was 0.0 ± 0.0 mmHg. For the same compound, the “IOP changes (mean ± SEM) in the untreated eye” value (0.5% w/v, 30 min) was 2.9 ± 0.8 mmHg, the “IOP changes (mean ± SEM) in the untreated eye” value (0.5% w/v, 60 min) was 2.4 ± 0.7 mmHg and the “IOP changes (mean ± SEM) in the untreated eye” value (0.5% w/v, 120 min) was 1.4 ± 0.4 mmHg. For the same compound, the “IOP changes (mean ± SEM) in the untreated eye” value (0.5% w/v, 180 min) was 0.0 ± 0.5 mmHg, the “IOP changes (mean ± SEM) in the untreated eye” value (0.5% w/v, 240 min) was −0.2 ± 0.7 mmHg and the “IOP changes (mean ± SEM) in the untreated eye” value (0.5% w/v, 300 min) was −0.9 ± 0.4 mmHg. For the same compound, the “IOP changes (mean ± SEM) in the untreated eye” value (0.5% w/v, 360 min) was −0.7 ± 0.6 mmHg, the “IOP changes (mean ± SEM) in the untreated eye” value (0.5% w/v, 420 min) was −0.2 ± 0.3 mmHg and the “IOP changes (mean ± SEM) in the untreated eye” value (1.0% w/v, 0 min) was 0.0 ± 0.0 mmHg. The “IOP changes (mean ± SEM) in the untreated eye” value (1.0% w/v, 30 min) was 2.2 ± 0.9 mmHg, the “IOP changes (mean ± SEM) in the untreated eye” value (1.0% w/v, 60 min) was 1.2 ± 1.2 mmHg and the “IOP changes (mean ± SEM) in the untreated eye” value (1.0% w/v, 120 min) was 1.0 ± 0.8 mmHg. The “IOP changes (mean ± SEM) in the untreated eye” value (1.0% w/v, 180 min) was −2.5 ± 1.3 mmHg, the “IOP changes (mean ± SEM) in the untreated eye” value (1.0% w/v, 240 min) was −1.8 ± 0.6 mmHg and the “IOP changes (mean ± SEM) in the untreated eye” value (1.0% w/v, 300 min) was −0.7 ± 0.8 mmHg. For the same compound, the “IOP changes (mean ± SEM) in the untreated eye” value (1.0% w/v, 360 min) was −0.2 ± 1.1 mmHg and the “IOP changes (mean ± SEM) in the untreated eye” value (1.0% w/v, 420 min) was −0.9 ± 1.0 mmHg.

Reference: US6953813B1, “2-Aminotetralin derivatives for the therapy of glaucoma” (Chiesi Farmaceutici S.p.A., priority 1999, dated 2005)
